{"source": "patent US20260215420A1", "about": "(Solasta Bio Limited, priority 2022, published 2026)", "key": {"Myzus persicae": {"test_system": "Myzus persicae", "experiment": "Leaf dip assay for aphids", "type": "in vivo", "conditions": "unformulated peptide, compared to vehicle and Spirotetramat, up to 120 hours", "procedure": "Leaf Dip Assay—Aphids or Plutella xylostella Based on IRAC susceptibility test method 019 (https://irac-online.org/methods/aphids-adultnymphs/). Fill a small 4 cm wide 3 cm high dish with a 1% agar solution (ensuring 1 cm gap between the agar and the lid) and leave to set. Dip a 2.5 cm leaf disc into 3 ml of treatment solution allowing the treatment to coat the leaf. Leave the disc to dry for 1 hour and place onto the set agar. Place insects (aphids or Plutella xylostella) onto each of the leaf discs. Each unit is sealed with a close-fitting, ventilated lid. Place the agar dishes in a small plastic tray lined with moist tissue paper and ensure the water trays in the bottom of the incubator are filled with clean water and place within the incubator. An assessment of mortality is made at 72, 96 and 120 hours. Leaf dip assays for aphids were performed with SB-P-65, and compared to a negative control vehicle and a current commercial insecticide Spirotetramat. The activity of SB-P-65 is shown in FIGS. 20 and 21; SB-P-65 has good activity whilst being eco-friendly and targeted to specific pests unlike broad spectrum chemical insecticides such as Spirotetramat. Leaf dip assays for aphids were performed with SB-P-66, and compared to a negative control vehicle and a current commercial insecticide Spirotetramat. […]"}, "[1]": {"experiment": "gut and MT tissue and contents of final-stage P. xylostella larvae in Schneider's medium", "conditions": "Plutella xylostella, 25° C., up to 24 h"}, "Spodoptera frugiperda": {"test_system": "Spodoptera frugiperda", "experiment": "Lepidoptera mortality assay (artificial diet)", "type": "in vivo", "conditions": "1×10^−4 M in artificial diet, L1 larvae, 168 hrs, compared to vehicle and DDT", "text": "Lepidoptera Mortality Assay Against Spodoptera frugiperda Frontier Lepidoptera Artificial diet was made up by preparing agar at 1% and then mixing it with artificial diet powder. Peptide solution was aliquoted in 10 cells and diet poured straight onto it. The final concentration of the peptide was 1×10^−4 M, and each peptide was aliquoted in 10 cells. Once the diet solidified and cooled down, one L1 larvae was infested in each cell. The trays were sealed with heat and let larva were allowed to develop for 168 hrs. Finally, pupation and mortality were scored for. Lepidoptera mortality assays were performed with SB-P-70, and compared to a negative control vehicle and the insecticide dichlorodiphenyltrichloroethane (DDT). The activity of SB-P-70 is shown in FIG. 32; SB-P-70 has good activity whilst being eco-friendly and targeted to specific pests unlike broad spectrum chemical insecticides such as DDT."}, "Plutella xylostella": {"test_system": "Plutella xylostella", "experiment": "Leaf dip assay for Plutella xylostella", "type": "in vivo", "conditions": "unformulated peptide, compared to vehicle and Chlorantraniliprole", "procedure": "Leaf Dip Assay—Aphids or Plutella xylostella Based on IRAC susceptibility test method 019 (https://irac-online.org/methods/aphids-adultnymphs/). Fill a small 4 cm wide 3 cm high dish with a 1% agar solution (ensuring 1 cm gap between the agar and the lid) and leave to set. Dip a 2.5 cm leaf disc into 3 ml of treatment solution allowing the treatment to coat the leaf. Leave the disc to dry for 1 hour and place onto the set agar. Place insects (aphids or Plutella xylostella) onto each of the leaf discs. Each unit is sealed with a close-fitting, ventilated lid. Place the agar dishes in a small plastic tray lined with moist tissue paper and ensure the water trays in the bottom of the incubator are filled with clean water and place within the incubator. An assessment of mortality is made at 72, 96 and 120 hours. Leaf dip assays for Plutella xylostella were performed with SB-P-70, and compared to a negative control vehicle and a current commercial insecticide Chlorantraniliprole. The activity of SB-P-70 is shown in FIG. 6; SB-P-70 has good activity whilst being eco-friendly and targeted to specific pests unlike broad spectrum chemical insecticides such as Chlorantraniliprole"}, "[2]": {"type": "in vitro ADME, Plutella xylostella", "procedure": "Plutella xylostella Tissue Biostability Study of SB-P-70 and SB-P-103\nSB-P-70 and SB-P-103 were incubated with the gut and MT tissue and contents of final-stage P. xylostella larvae in Schneider's medium at 25° C. Control samples were prepared with peptides in Schneider's medium with no tissue and tissue in Schneider's medium with no peptides. The condition of the peptides after incubation with the tissue was assessed by LC-MS at: 4 h; 8 h; 16 h; and 24 h time points (FIGS. 13 and 14).\nIn contrast, SB-P-103 remained 44% intact after 24 h tissue incubation."}}}
{"compound": "CC(C)[C@H](NC(=O)C(NC(=O)[C@H](CCCCN)NC(=O)[C@H](CCC(N)=O)NC(=O)[C@@H](N)CCCNC(=N)N)[C@@H](C)O)C(=O)N[C@@H](Cc1ccccc1)C(=O)N[C@@H](CO)C(=O)N[C@@H](CO)C(=O)N[C@@H](Cc1c[nH]c2ccccc12)C(=O)NCC(N)=O", "note": "(stereo partly shown) [SB-P-65, Hy-RQKTVFSSWG-[NH2]]", "values": [{"measurement": "activity against Myzus persicae (mortality)", "setting": "Myzus persicae", "result": "good activity"}]}
{"compound": "H-KVKFSAWG-NH2", "values": [{"measurement": "cleaved bond", "setting": "[1]", "result": "Ser5-Ala6, major"}]}
{"compound": "H-KVKFSAWG-NH2 [SB-P-70, Hy-KVKFSAWG-[NH2]]", "values": [{"measurement": "activity against Spodoptera frugiperda (pupation and mortality)", "setting": "Spodoptera frugiperda", "result": "good activity"}, {"measurement": "activity against Plutella xylostella (mortality)", "setting": "Plutella xylostella", "result": "good activity"}, {"measurement": "condition of the peptide after incubation with the tissue", "setting": "[2]", "result": "completely degraded"}, {"measurement": "site of proteolytic cleavage", "setting": "[2]", "result": "between Ser5 and Ala6"}]}
{"compound": "H-PAFSSWG-NH2 [SB-P-66, Hy-PAFSSWG-[NH2]]", "values": [{"measurement": "activity against Myzus persicae (mortality)", "setting": "Myzus persicae", "result": "good activity"}]}
